In ChEMBL document CHEMBL5500393, “Discovery and Optimization of Novel SaFabI Inhibitors as Specific Therapeutic Agents for MRSA Infection” (J Med Chem, 2024):
Values after ≈ are worked out from the molar mass of the structure shown. Active and inactive are the calls of the source. The calls are words filed in the database; no cut-off is given here.

Key:
[1] = Cmax in female Sprague-Dawley rat at 5 mg/kg, iv measured upto 24 hrs by LC-MS analysis; type: ADME, organism-based; settings: in vivo
Staphylococcus aureus [2] = assay: Antimicrobial activity against […] Staphylococcus aureus USA300 measured after 24 hrs by CLSI protocol based microdilution method; type: functional
Staphylococcus aureus [3] = assay: In vivo antibacterial activity against methicilin-resistant Staphylococcus aureus ATCC33591 infected in BALB/c mouse skin infection model assessed as decrease in lesion size at 5 mg/kg administered daily for 4 days (reference value: 43.4 mm2); type: functional; settings: time 4 day
Staphylococcus aureus [4] = assay: Bactericidal activity against […] Staphylococcus aureus ATCC33591 assessed as log reduction in bacterial count measured within 24 hrs by time-kill assay; type: functional
Enterococcus faecium = assay: Antimicrobial activity against Enterococcus faecium ATCC19434 measured after 24 hrs by CLSI protocol based microdilution method; type: functional
[5] = Metabolic stability in mouse liver microsomes assessed as half life at 1 uM measured upto 120 mins in presence of NADPH by LC-MS analysis; type: ADME, Microsome
[6] = AUC (0 to t) in female Sprague-Dawley rat at 5 mg/kg, iv measured upto 24 hrs by LC-MS analysis; type: ADME, organism-based; settings: in vivo
[7] = Metabolic stability in human liver microsomes assessed as half life at 1 uM measured upto 120 mins in presence of NADPH by LC-MS analysis; type: ADME, Microsome
Staphylococcus aureus [8] = assay: Antimicrobial activity against Staphylococcus aureus RN4220 harbouring pCM-sfgfp::fabi (promoter fabi) measured after 24 hrs by CLSI protocol based microdilution method; type: functional
Staphylococcus aureus [9] = assay: In vivo antibacterial activity against methicilin-resistant Staphylococcus aureus ATCC33591 infected in BALB/c mouse skin infection model assessed as reduction in skin lesions at 5 mg/kg administered daily for 4 days (reference value: 50.1 mm2); type: functional; settings: time 4 day
[10] = Half life in female Sprague-Dawley rat at 5 mg/kg, iv measured upto 24 hrs by LC-MS analysis; type: ADME, organism-based; settings: in vivo
Staphylococcus aureus [11] = assay: In vivo antibacterial activity against methicilin-resistant Staphylococcus aureus ATCC33591 infected in BALB/c mouse skin infection model assessed as reduction in number of inflammatory cells at 5 mg/kg administered daily for 4 days by H and E staining based analysis; type: functional, organism-based; settings: time 4.0 day
Acinetobacter baumannii = assay: Antimicrobial activity against Acinetobacter baumannii ATCC19606 measured after 24 hrs by CLSI protocol based microdilution method; type: functional
[12] = Metabolic stability in human liver microsomes assessed as intrinsic clearance at 1 uM measured upto 120 mins in presence of NADPH by LC-MS analysis; type: ADME, Microsome; settings: read-out: CLH
Staphylococcus aureus [13] = assay: Antimicrobial activity against […] Staphylococcus aureus ATCC33591 assessed as frequency of spontaneous resistance at 8 times MIC measured after 48 hrs by; type: functional
[14] = Tmax in female Sprague-Dawley rat at 20 mg/kg, po measured upto 24 hrs by LC-MS analysis; type: ADME, organism-based; settings: in vivo
Staphylococcus aureus [15] = assay: Antimicrobial activity against […] Staphylococcus aureus ATCC43300 measured after 24 hrs by CLSI protocol based microdilution method; type: functional
Staphylococcus aureus [16] = assay: Antimicrobial activity against Staphylococcus aureus RN4220 harbouring pCM-sfgfp measured after 24 hrs by CLSI protocol based microdilution method; type: functional
Staphylococcus aureus [17] = assay: In vivo antibacterial activity against methicilin-resistant Staphylococcus aureus ATCC33591 infected in BALB/c mouse skin infection model assessed as reduction in bacterial load at 5 mg/kg administered daily for 4 days; type: functional; settings: time 4 day
Staphylococcus aureus [18] = assay: In vivo antibacterial activity against methicilin-resistant Staphylococcus aureus ATCC33591 infected in BALB/c mouse skin infection model assessed as restoration of cell morphology at 5 mg/kg administered daily for 4 days by H and E staining based analysis; type: functional, organism-based; settings: time 4.0 day
[19] = Metabolic stability in mouse liver microsomes assessed as intrinsic clearance at 1 uM measured upto 120 mins in presence of NADPH by LC-MS analysis; type: ADME, Microsome; settings: read-out: CLH
[20] = Clearance in female Sprague-Dawley rat at 5 mg/kg, iv measured upto 24 hrs by LC-MS analysis; type: ADME, organism-based; settings: in vivo
[21] = Clearance in female Sprague-Dawley rat at 20 mg/kg, po measured upto 24 hrs by LC-MS analysis; type: ADME, organism-based; settings: in vivo
Enterococcus faecalis = assay: Antimicrobial activity against Enterococcus faecalis ATCC29212 measured after 24 hrs by CLSI protocol based microdilution method; type: functional
Staphylococcus aureus [22] = assay: Antimicrobial activity against […] Staphylococcus aureus NRS271 measured after 24 hrs by CLSI protocol based microdilution method; type: functional
[23] = biological target: T1, Enoyl-[acyl-carrier-protein] reductase [NADPH] FabI (Staphylococcus aureus, UniProt Q6GI75); assay: Inhibition of N-terminal his 6 tagged Staphylococcus aureus Fabi (1 to […] residues) expressed in Escherichia coli BL21 incubated for 30 mins in presence of NADPH by fluorescence based microplate reader analysis
T1 sequence (Q6GI75 whole entry): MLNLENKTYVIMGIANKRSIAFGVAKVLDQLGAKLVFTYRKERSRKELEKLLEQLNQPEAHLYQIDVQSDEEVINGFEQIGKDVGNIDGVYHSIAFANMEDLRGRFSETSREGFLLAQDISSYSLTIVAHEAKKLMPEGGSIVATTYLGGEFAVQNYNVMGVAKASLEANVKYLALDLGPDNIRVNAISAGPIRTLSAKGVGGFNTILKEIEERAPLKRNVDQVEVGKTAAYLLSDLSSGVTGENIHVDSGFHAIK

Pseudomonas aeruginosa = assay: Antimicrobial activity against Pseudomonas aeruginosa PAO1 measured after 24 hrs by CLSI protocol based microdilution method; type: functional
[24] = Half life in female Sprague-Dawley rat at 20 mg/kg, po measured upto 24 hrs by LC-MS analysis; type: ADME, organism-based; settings: in vivo
Candida albicans = assay: Antimicrobial activity against Candida albicans SC5314 measured after 48 hrs by CLSI protocol based microdilution method; type: functional
Staphylococcus aureus [25] = assay: Antimicrobial activity against Staphylococcus aureus RN4220 harbouring pCM-sfgfp::fabi (promoter-sarA) measured after 24 hrs by CLSI protocol based microdilution method; type: functional
Staphylococcus aureus [26] = assay: In vivo antibacterial activity against methicilin-resistant Staphylococcus aureus ATCC33591 infected in BALB/c mouse skin infection model assessed as log reduction in bacterial count at 5 mg/kg administered daily for 4 days; type: functional; settings: time 4 day
Staphylococcus aureus [27] = assay: Antimicrobial activity against […] Staphylococcus aureus ATCC33591 assessed as reduction in lipid content measured after 4 hrs by microplate reader based analysis; type: functional
[28] = Cmax in female Sprague-Dawley rat at 20 mg/kg, po measured upto 24 hrs by LC-MS analysis; type: ADME, organism-based; settings: in vivo
Staphylococcus aureus [29] = assay: Antimicrobial activity against wild type Staphylococcus aureus RN4220 measured after 24 hrs by CLSI protocol based microdilution method; type: functional
[30] = AUC (0 to t) in female Sprague-Dawley rat at 20 mg/kg, po measured upto 24 hrs by LC-MS analysis; type: ADME, organism-based; settings: in vivo
Staphylococcus aureus [31] = assay: In vivo antibacterial activity against methicilin-resistant Staphylococcus aureus ATCC33591 infected in BALB/c mouse skin infection model assessed as reduction in area of injury at 5 mg/kg administered daily for 4 days by H and E staining based analysis; type: functional, organism-based; settings: time 4.0 day
Staphylococcus aureus [32] = assay: Antimicrobial activity against methicillin-susceptible Staphylococcus aureus ATCC25923 measured after 24 hrs by CLSI protocol based microdilution method; type: functional
Staphylococcus aureus [33] = assay: Antimicrobial activity against […] Staphylococcus aureus ATCC33591 measured after 24 hrs by CLSI protocol based microdilution method; type: functional
Staphylococcus aureus [34] = assay: Antimicrobial activity against […] Staphylococcus aureus ATCC33591 assessed as frequency of spontaneous resistance at 16 times MIC measured after 48 hrs by; type: functional
Staphylococcus aureus [35] = assay: In vivo antibacterial activity against methicilin-resistant Staphylococcus aureus ATCC33591 infected in BALB/c mouse skin infection model assessed as normal morphology at 5 mg/kg administered daily for 4 days by H and E staining based analysis; type: functional, organism-based; settings: time 4.0 day
Staphylococcus aureus [36] = assay: Antimicrobial activity against methicillin-susceptible Staphylococcus aureus ATCC29213 measured after 24 hrs by CLSI protocol based microdilution method; type: functional
Staphylococcus aureus [37] = assay: In vivo antibacterial activity against methicilin-resistant Staphylococcus aureus ATCC33591 infected in BALB/c mouse skin infection model assessed as normal skin structure at 5 mg/kg administered daily for 4 days by H and E staining based analysis; type: functional, organism-based; settings: time 4.0 day
Staphylococcus aureus [38] = assay: Antimicrobial activity against […] Staphylococcus aureus ATCC33591 assessed as frequency of spontaneous resistance at 4 times MIC measured after 48 hrs by; type: functional
[39] = Oral bioavailability in female Sprague-Dawley rat at 20 mg/kg measured upto 24 hrs by LC-MS analysis; type: ADME, organism-based; settings: in vivo
Escherichia coli = assay: Antimicrobial activity against Escherichia coli ATCC25922 measured after 24 hrs by CLSI protocol based microdilution method; type: functional

## Cc1c(CN(C)C(=O)/C=C/c2cnc3c(c2)CCC(=O)N3)oc2ccccc12 [AFN-1252]
[1]
  Cmax: 1810 ng/mL
Staphylococcus aureus [2]
  MIC: 0.016 µg/mL (≈ 0.0426 µM)
Staphylococcus aureus [3]
  Activity: 10.4 mm2
Staphylococcus aureus [4]
  log(activity): 5
Enterococcus faecium
  MIC: > 32 µg/mL
[5]
  half-life at 1 µM: 17.1 min
[6]
  AUCt: 2713.1 ng·h/mL
[7]
  half-life at 1 µM: 34.5 min
Staphylococcus aureus [8]
  MIC: 0.25 µg/mL (≈ 0.666 µM)
Staphylococcus aureus [9]
  Activity: 13.7 mm2
[10]
  t1/2: 402 min
Staphylococcus aureus [11]
  Activity: Active
Acinetobacter baumannii
  MIC: > 32 µg/mL
[12]
  CLint scaled at 1 µM: 50.4 mL/min/kg
Staphylococcus aureus [13]
  Activity: 5.9 10^-10No_unit
[14]
  Tmax: 60 min
Staphylococcus aureus [15]
  MIC: 0.016 µg/mL (≈ 0.0426 µM)
Staphylococcus aureus [16]
  MIC: 0.016 µg/mL (≈ 0.0426 µM)
Staphylococcus aureus [17]
  log(activity): -7.1
Staphylococcus aureus [18]
  Activity: Active
[19]
  CLint scaled at 1 µM: 319 mL/min/kg
[20]
  clearance: 30 mL/min/kg
[21]
  CL/F: 71.7 mL/min/kg
Enterococcus faecalis
  MIC: > 32 µg/mL
Staphylococcus aureus [22]
  MIC: 0.016 µg/mL (≈ 0.0426 µM)
[23]
  IC50: 42.3 nM
Pseudomonas aeruginosa
  MIC: > 32 µg/mL
[24]
  t1/2: 432 min
Candida albicans
  MIC: > 32 µg/mL
Staphylococcus aureus [25]
  MIC: 1 µg/mL (≈ 2.66 µM)
Staphylococcus aureus [26]
  log(activity): 7.8
Staphylococcus aureus [27]
  MIC: 0.008 µg/mL (≈ 0.0213 µM)
[28]
  Cmax: 711 ng/mL
Staphylococcus aureus [29]
  MIC: 0.016 µg/mL (≈ 0.0426 µM)
[30]
  AUCt: 4414.1 ng·h/mL
Staphylococcus aureus [31]
  Activity: Active
Staphylococcus aureus [32]
  MIC: 0.008 µg/mL (≈ 0.0213 µM)
Staphylococcus aureus [33]
  MIC: 0.008 µg/mL (≈ 0.0213 µM)
Staphylococcus aureus [34]
  Activity: <2.6 10^-10No_unit
Staphylococcus aureus [35]
  Activity: Active
Staphylococcus aureus [36]
  MIC: 0.008 µg/mL (≈ 0.0213 µM)
Staphylococcus aureus [37]
  Activity: Active
Staphylococcus aureus [38]
  Activity: 1.6 10^-9No_unit
[39]
  bioavailability: 40.7%
Escherichia coli
  MIC: > 32 µg/mL
